Experimental data: patent publication US12502434B2, “Compound comprising EZH2 inhibitor and E3 ligase binder and pharmaceutical composition for preventing or treating EZH2-associated disease comprising same as active ingredient” (DAEGU-GYEONGBUK MEDICAL INNOVATION FOUNDATION, priority 2019, dated 2025)
Like-named read-outs stand apart in the source and are kept apart here.

Target: T1, EZH2 protein in LS174T cells (Homo sapiens, UniProt Q15910)
T1 construct: endogenous in cells; host or cells: LS174T
T1 sequence (Q15910 whole entry): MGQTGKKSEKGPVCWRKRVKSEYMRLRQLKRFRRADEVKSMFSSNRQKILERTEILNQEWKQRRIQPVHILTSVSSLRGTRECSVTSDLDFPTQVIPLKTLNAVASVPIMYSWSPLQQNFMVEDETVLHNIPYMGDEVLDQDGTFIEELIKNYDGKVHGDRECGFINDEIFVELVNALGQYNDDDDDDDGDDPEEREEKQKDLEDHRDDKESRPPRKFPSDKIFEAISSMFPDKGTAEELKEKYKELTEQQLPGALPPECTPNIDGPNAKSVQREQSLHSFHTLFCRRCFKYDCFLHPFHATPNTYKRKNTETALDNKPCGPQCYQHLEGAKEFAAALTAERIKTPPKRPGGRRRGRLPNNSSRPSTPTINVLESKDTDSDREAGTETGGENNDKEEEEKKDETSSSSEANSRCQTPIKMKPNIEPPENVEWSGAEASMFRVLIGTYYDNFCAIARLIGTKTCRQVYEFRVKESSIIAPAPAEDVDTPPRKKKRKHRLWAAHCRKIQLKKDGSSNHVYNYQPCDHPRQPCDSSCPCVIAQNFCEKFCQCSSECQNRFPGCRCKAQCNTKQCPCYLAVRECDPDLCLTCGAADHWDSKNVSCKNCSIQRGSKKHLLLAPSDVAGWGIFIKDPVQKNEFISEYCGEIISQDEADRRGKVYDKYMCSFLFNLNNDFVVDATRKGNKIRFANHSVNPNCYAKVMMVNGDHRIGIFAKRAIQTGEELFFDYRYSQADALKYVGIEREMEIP
T1 sequence (O75530 whole entry partner): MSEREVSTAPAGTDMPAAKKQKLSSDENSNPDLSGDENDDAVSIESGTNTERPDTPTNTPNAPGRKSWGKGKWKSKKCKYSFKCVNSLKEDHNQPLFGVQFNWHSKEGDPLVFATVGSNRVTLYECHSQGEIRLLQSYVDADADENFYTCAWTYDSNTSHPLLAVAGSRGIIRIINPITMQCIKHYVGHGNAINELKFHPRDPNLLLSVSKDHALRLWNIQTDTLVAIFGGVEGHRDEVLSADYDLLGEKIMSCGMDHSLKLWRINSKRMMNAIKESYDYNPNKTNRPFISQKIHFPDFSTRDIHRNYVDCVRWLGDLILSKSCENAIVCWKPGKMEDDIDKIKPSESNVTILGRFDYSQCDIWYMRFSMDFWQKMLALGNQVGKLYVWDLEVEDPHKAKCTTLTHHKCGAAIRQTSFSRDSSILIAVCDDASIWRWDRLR
T1 sequence (Q15022 whole entry partner): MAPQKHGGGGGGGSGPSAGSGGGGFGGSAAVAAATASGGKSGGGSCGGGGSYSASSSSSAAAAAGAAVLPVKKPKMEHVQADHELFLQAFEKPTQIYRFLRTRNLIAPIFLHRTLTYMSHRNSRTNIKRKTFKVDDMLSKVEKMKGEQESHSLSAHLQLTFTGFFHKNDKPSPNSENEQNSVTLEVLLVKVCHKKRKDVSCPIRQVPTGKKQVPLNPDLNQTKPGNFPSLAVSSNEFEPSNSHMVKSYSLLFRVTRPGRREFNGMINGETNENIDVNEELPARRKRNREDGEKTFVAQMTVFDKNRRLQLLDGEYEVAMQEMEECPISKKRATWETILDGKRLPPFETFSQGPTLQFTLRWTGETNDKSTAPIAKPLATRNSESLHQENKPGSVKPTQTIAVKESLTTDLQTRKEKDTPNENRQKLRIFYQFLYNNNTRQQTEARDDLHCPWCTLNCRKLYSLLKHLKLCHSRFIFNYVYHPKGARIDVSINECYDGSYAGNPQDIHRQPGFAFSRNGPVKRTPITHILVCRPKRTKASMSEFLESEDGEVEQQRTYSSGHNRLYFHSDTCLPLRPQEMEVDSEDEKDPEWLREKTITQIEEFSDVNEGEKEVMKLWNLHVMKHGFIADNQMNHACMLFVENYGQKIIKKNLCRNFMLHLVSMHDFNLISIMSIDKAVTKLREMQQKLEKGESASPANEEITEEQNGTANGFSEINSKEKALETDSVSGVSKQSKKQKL
Assay: Proteolytic effect in colorectal cancer cells (Western blotting)
Format: cell-based
Procedure: After 72 hours of the treatment, the cells were collected and lysed using RIPA buffer (50 mM Tris, pH 7.5, 150 mM NaCl, 1% Triton X-100, 0.1% SDS, […], 0.5% deoxycholate, and protease inhibitor cocktail), followed by sonication (30 sec on/30 sec off, 5 cycles) to prepare a cell lysate.

[1] = EZH2 protein, LS174T cells, 1 μM, 72 hours
[2] = EZH2 protein, LS174T cells, 1 uM, 72 hours, Western blotting

Row | Grade (percent value of the protein degradation when treated with 1 μM) [1] | %, degradation at 1 uM [2] | EZH2 proteolytic effect by Western blotting (figure, in words) (FIGS. 1 to 5) | effect of degrading EZH2 protein when treated to colorectal cancer cells (in words) (LS174T cells) | Compound | %, degradation at 1 uM | Grade (percent value of the protein degradation when treated with 1 μM)
1 | C (25-50%) | 31.67% |  |  | CCN(c1cc(-c2ccc(CN3CCN(C(=O)c4cn(CCCCCNc5cccc6c5C(=O)N(C5CCC(=O)NC5=O)C6=O)nn4)CC3)cc2)cc(C(=O)NCc2c(C)cc(C)[nH]c2=O)c1C)C1CCOCC1 (stereo not shown) [Example 32, N-((4,6-dimethyl-2-oxo-1,2-dihydropyridine-3-yl)methyl)-4′-((4-(1-(5-((2-(2,6-dioxopiperidine-3-yl)-1,3-dioxoisoindoline-4-yl)amino)pentyl)-1H-1,2,3-triazole-4-carbonyl)piperazine-1-yl)methyl)-5-(ethyl(tetrahydro-2H-pyran-4-yl)amino)-4-methyl-[1,1′-biphenyl]-3-carboxamide] |  | 
2 | D (<25%) | 12.87% |  |  | CCN(c1cc(-c2ccc(CN3CCN(CCCCCCCNc4cccc5c4C(=O)N(C4CCC(=O)NC4=O)C5=O)CC3)cc2)cc(C(=O)NCc2c(C)cc(C)[nH]c2=O)c1C)C1CCOCC1 (stereo not shown) [Example 11, N-((4,6-dimethyl-2-oxo-1,2-dihydropyridine-3-yl)methyl)-4′-((4-(7-((2-(2,6-dioxopiperidine-3-yl)-1,3-dioxoisoindoline-4-yl)amino)heptyl)piperazine-1-yl)methyl)-5-(ethyl(tetrahydro-2H-pyran-4-yl)amino)-4-methyl-[1,1′-biphenyl]-3-carboxamide] |  | 
3 | A (>75%) | 83.09% | confirming the EZH2 proteolytic effect | excellent effects | CCN(c1cc(-c2ccc(CN3CCN(CCNCCCCCCNc4cccc5c4C(=O)N(C4CCC(=O)NC4=O)C5=O)CC3)cc2)cc(C(=O)NCc2c(C)cc(C)[nH]c2=O)c1C)C1CCOCC1 (stereo not shown) [Example 21, N-((4,6-dimethyl-2-oxo-1,2-dihydropyridine-3-yl)methyl)-4′-((4-(2-((6-((2-(2,6-dioxopiperidine-3-yl)-1,3-dioxoisoindoline-4-yl)amino)hexyl)amino)ethyl)piperazine-1-yl)methyl)-5-(ethyl(tetrahydro-2H-pyran-4-yl)amino)-4-methyl-[1,1′-biphenyl]-3-carboxamide] |  | 
4 | D (<25%) | 9.07% |  |  | CCN(c1cc(-c2ccc(CN3CCN(CCOCCCCCCNc4cccc5c4C(=O)N(C4CCC(=O)NC4=O)C5=O)CC3)cc2)cc(C(=O)NCc2c(C)cc(C)[nH]c2=O)c1C)C1CCOCC1 (stereo not shown) [Example 19, N-((4,6-dimethyl-2-oxo-1,2-dihydropyridine-3-yl)methyl)-4′-((4-(2-((6-((2-(2,6-dioxopiperidine-3-yl)-1,3-dioxoisoindoline-4-yl)amino)hexyl)oxy)ethyl)piperazine-1-yl)methyl)-5-(ethyl(tetrahydro-2H-pyran-4-yl)amino)-4-methyl-[1,1′-biphenyl]-3-carboxamide] |  | 
5 | D (<25%) | 0% |  |  | CCN(c1cc(-c2ccc(CN3CCN(Cc4cn(CCOCCNc5cccc6c5C(=O)N(C5CCC(=O)NC5=O)C6=O)nn4)CC3)cc2)cc(C(=O)NCc2c(C)cc(C)[nH]c2=O)c1C)C1CCOCC1 (stereo not shown) [Example 24, N-((4,6-dimethyl-2-oxo-1,2-dihydropyridine-3-yl)methyl)-4′-((4-((1-(2-(2-((2-(2,6-dioxopiperidine-3-yl)-1,3-dioxoisoindoline-4-yl)amino)ethoxy)ethyl)-1H-1,2,3-triazole-4-yl)methyl)piperazine-1-yl)methyl)-5-(ethyl(tetrahydro-2H-pyran-4-yl)amino)-4-methyl-[1,1′-biphenyl]-3-carboxamide] |  | 

Further lines, the compound ahead of its results:

Row | Compound | Grade (percent value of the protein degradation when treated with 1 μM) [1] | %, degradation at 1 uM [2] | EZH2 proteolytic effect by Western blotting (figure, in words) (FIGS. 1 to 5) | effect of degrading EZH2 protein when treated to colorectal cancer cells (in words) (LS174T cells) | %, degradation at 1 uM | Grade (percent value of the protein degradation when treated with 1 μM)
6 | CCN(c1cc(-c2ccc(CN3CCN(CC(=O)NCCOCCCNc4cccc5c4C(=O)N(C4CCC(=O)NC4=O)C5=O)CC3)cc2)cc(C(=O)NCc2c(C)cc(C)[nH]c2=O)c1C)C1CCOCC1 (stereo not shown) [Example 16, N-((4,6-dimethyl-2-oxo-1,2-dihydropyridine-3-yl)methyl)-4′-((4-(2-((2-(3-((2-(2,6-dioxopiperidine-3-yl)-1,3-dioxoisoindoline-4-yl)amino)propoxy)ethyl)amino)-2-oxoethyl)piperazine-1-yl)methyl)-5-(ethyl(tetrahydro-2H-pyran-4-yl)amino)-4-methyl-[1,1′-biphenyl]-3-carboxamide] |  |  |  |  | 5.51% | D (key: A: >75%; B: 50-75%; C: 25-50%; D: <25%)
7 | CCN(c1cc(-c2ccc(CN3CCN(CC(=O)N4CCC5(CCN(CCCCNc6cccc7c6C(=O)N(C6CCC(=O)NC6=O)C7=O)C5)C4)CC3)cc2)cc(C(=O)NCc2c(C)cc(C)[nH]c2=O)c1C)C1CCOCC1 (stereo not shown) [Example 34, N-((4,6-dimethyl-2-oxo-1,2-dihydropyridine-3-yl)methyl)-4′-((4-(2-(7-(4-((2-(2,6-dioxopiperidine-3-yl)-1,3-dioxoisoindoline-4-yl)amino)butyl)-2,7-diazaspiro[4.4]nonane-2-yl)-2-oxoethyl)piperazine-1-yl)methyl)-5-(ethyl(tetrahydro-2H-pyran-4-yl)amino)-4-methyl-[1,1′-biphenyl]-3-carboxamide] | D (<25%) | 0% |  |  |  | 
8 | CCN(c1cc(-c2ccc(CN3CCN(CC(=O)NCCNc4cccc5c4C(=O)N(C4CCC(=O)NC4=O)C5=O)CC3)cc2)cc(C(=O)NCc2c(C)cc(C)[nH]c2=O)c1C)C1CCOCC1 (stereo not shown) [Example 1, N-((4,6-dimethyl-2-oxo-1,2-dihydropyridine-3-yl)methyl)-4′-((4-(2-((2-((2-(2,6-dioxopiperidine-3-yl)-1,3-dioxoisoindoline-4-yl)amino)ethyl)amino)-2-oxoethyl)piperazine-1-yl)methyl)-5-(ethyl(tetrahydro-2H-pyran-4-yl)amino)-4-methyl-[1,1′-biphenyl]-3-carboxamide] | D (<25%) | 8.15% |  |  |  | 
9 | CCN(c1cc(-c2ccc(CN3CCN(CC(=O)NCCCCCOCCCOCC(=O)Nc4cccc5c4CN(C4CCC(=O)NC4=O)C5=O)CC3)cc2)cc(C(=O)NCc2c(C)cc(C)[nH]c2=O)c1C)C1CCOCC1 (stereo not shown) [Example 27, N-((4,6-dimethyl-2-oxo-1,2-dihydropyridine-3-yl)methyl)-4′-((4-(2-((5-(3-(2-((2-(2,6-dioxopiperidine-3-yl)-1-oxoisoindoline-4-yl)amino)-2-oxoethoxy)propoxy)pentyl)amino)-2-oxoethyl)piperazine-1-yl)methyl)-5-(ethyl(tetrahydro-2H-pyran-4-yl)amino)-4-methyl-[1,1′-biphenyl]-3-carboxamide] | D (<25%) | 2.27% |  |  |  | 
10 | CCN(c1cc(-c2ccc(CN3CCN(CC(=O)NCCCCNc4cccc5c4C(=O)N(C4CCC(=O)NC4=O)C5=O)CC3)cc2)cc(C(=O)NCc2c(C)cc(C)[nH]c2=O)c1C)C1CCOCC1 (stereo not shown) [Example 3, N-((4,6-dimethyl-2-oxo-1,2-dihydropyridine-3-yl)methyl)-4′-((4-(2-((4-((2-(2,6-dioxopiperidine-3-yl)-1,3-dioxoisoindoline-4-yl)amino)butyl)amino)-2-oxoethyl)piperazine-1-yl)methyl)-5-(ethyl(tetrahydro-2H-pyran-4-yl)amino)-4-methyl-[1,1′-biphenyl]-3-carboxamide] | D (<25%) | 13.61% |  |  |  | 
11 | CCN(c1cc(-c2ccc(CN3CCN(CC(=O)N4CC5(CN(CCNc6cccc7c6C(=O)N(C6CCC(=O)NC6=O)C7=O)C5)C4)CC3)cc2)cc(C(=O)NCc2c(C)cc(C)[nH]c2=O)c1C)C1CCOCC1 (stereo not shown) [Example 36, N-((4,6-dimethyl-2-oxo-1,2-dihydropyridine-3-yl)methyl)-4′-((4-(2-(6-(2-((2-(2,6-dioxopiperidine-3-yl)-1,3-dioxoisoindoline-4-yl)amino)ethyl)-2,6-diazaspiro[3.3]heptane-2-yl)-2-oxoethyl)piperazine-1-yl)methyl)-5-(ethyl(tetrahydro-2H-pyran-4-yl)amino)-4-methyl-[1,1′-biphenyl]-3-carboxamide] | D (<25%) | 0% |  |  |  | 
12 | CCN(c1cc(-c2ccc(CN3CCN(CC(=O)N4CC5(CN(CCCCNc6cccc7c6C(=O)N(C6CCC(=O)NC6=O)C7=O)C5)C4)CC3)cc2)cc(C(=O)NCc2c(C)cc(C)[nH]c2=O)c1C)C1CCOCC1 (stereo not shown) [Example 35, N-((4,6-dimethyl-2-oxo-1,2-dihydropyridine-3-yl)methyl)-4′-((4-(2-(6-(4-((2-(2,6-dioxopiperidine-3-yl)-1,3-dioxoisoindoline-4-yl)amino)butyl)-2,6-diazaspiro[3.3]heptane-2-yl)-2-oxoethyl)piperazine-1-yl)methyl)-5-(ethyl(tetrahydro-2H-pyran-4-yl)amino)-4-methyl-[1,1′-biphenyl]-3-carboxamide] | D (<25%) | 0% |  |  |  | 
13 | CCN(c1cc(-c2ccc(CN3CCN(CC(=O)NCCCCCCOc4cccc5c4C(=O)N(C4CCC(=O)NC4=O)C5=O)CC3)cc2)cc(C(=O)NCc2c(C)cc(C)[nH]c2=O)c1C)C1CCOCC1 (stereo not shown) [Example 8, N-((4,6-dimethyl-2-oxo-1,2-dihydropyridine-3-yl)methyl)-4′-((4-(2-((6-((2-(2,6-dioxopiperidine-3-yl)-1,3-dioxoisoindoline-4-yl)oxy)hexyl)amino)-2-oxoethyl)piperazine-1-yl)methyl)-5-(ethyl(tetrahydro-2H-pyran-4-yl)amino)-4-methyl-[1,1′-biphenyl]-3-carboxamide] | D (<25%) | 2.91% |  |  |  | 
